Results from ChEMBL document CHEMBL1126148, “Synthesis of halogenated trimetoquinol derivatives and evaluation of their beta-agonist and thromboxane A2 (TXA2) antagonist activities” (J Med Chem, 1992).

Key:
[1] = molecular target: T1, Beta-2 adrenergic receptor (Cavia porcellus, UniProt Q8K4Z4); test: Agonist activity at Beta-2 adrenergic receptor in guinea pig trachea after treatment with the compound
[2] = molecular target: T2, Beta-1 adrenergic receptor (Cavia porcellus, UniProt B0FL73); test: (§1) Inhibitory activity against Beta-1 adrenergic receptor in guinea pig atria after treatment with the compound
[3] = species on record: Homo sapiens; test: (§2) Potency ratio was measured as EC50 (trimetoquinol )/EC50 (drug); assay type: functional
[4] = species on record: Rattus norvegicus; test: as §2; assay type: functional
[5] = molecular target: Beta-1 adrenergic receptor (Cavia porcellus) (UniProt B0FL73); test: Maximum response of drug relative to the response of 10e-5 isoproterenol after treatment with the compound; assay type: functional
[6] = molecular target: T3, Thromboxane A2 receptor (Rattus norvegicus) (UniProt P34978); test: (§3) Inhibitory activity against […]-mediated contraction of rat thoracic aorta (Thromboxane A2 tau receptor); assay type: tissue-based
T3 sequence (whole entry): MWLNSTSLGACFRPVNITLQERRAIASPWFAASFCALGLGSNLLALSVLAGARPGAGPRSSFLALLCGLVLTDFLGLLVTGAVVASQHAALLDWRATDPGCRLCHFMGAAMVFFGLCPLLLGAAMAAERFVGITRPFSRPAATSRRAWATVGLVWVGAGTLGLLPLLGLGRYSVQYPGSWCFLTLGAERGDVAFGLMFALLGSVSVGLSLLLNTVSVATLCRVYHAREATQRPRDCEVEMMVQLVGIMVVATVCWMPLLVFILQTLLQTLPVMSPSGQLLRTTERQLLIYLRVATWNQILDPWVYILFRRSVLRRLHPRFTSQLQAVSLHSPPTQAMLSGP

[7] = molecular target: T3, Thromboxane A2 receptor (Rattus norvegicus); test: as §3; assay type: functional, tissue-based
[8] = molecular target: T1, Beta-2 adrenergic receptor; test: Binding affinity against Beta-2 adrenergic receptor in guinea pig lung membranes; assay type: cell membranes, Membrane
[9] = molecular target: T2, Beta-1 adrenergic receptor; test: Binding affinity against Beta-1 adrenergic receptor in guinea pig left ventricle
[10] = molecular target: Beta-1 adrenergic receptor (Cavia porcellus) (UniProt B0FL73); test: as §1

T2 sequence (B0FL73 whole entry): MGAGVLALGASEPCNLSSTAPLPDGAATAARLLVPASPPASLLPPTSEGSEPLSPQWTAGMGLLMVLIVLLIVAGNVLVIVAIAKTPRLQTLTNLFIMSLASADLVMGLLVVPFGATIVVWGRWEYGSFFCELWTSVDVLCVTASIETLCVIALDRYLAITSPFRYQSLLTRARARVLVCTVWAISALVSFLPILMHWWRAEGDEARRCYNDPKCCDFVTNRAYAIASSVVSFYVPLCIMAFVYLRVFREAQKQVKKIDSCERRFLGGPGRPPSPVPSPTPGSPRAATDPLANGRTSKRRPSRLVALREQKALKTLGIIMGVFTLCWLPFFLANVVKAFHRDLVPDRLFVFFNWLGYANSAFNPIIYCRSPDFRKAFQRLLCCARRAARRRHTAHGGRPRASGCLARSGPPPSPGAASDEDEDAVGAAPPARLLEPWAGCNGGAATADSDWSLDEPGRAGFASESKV
Beta-1 adrenergic receptor (Cavia porcellus), sequence (B0FL73 1-467): as the sequence (B0FL73 whole entry) above
T1 sequence (Q8K4Z4 whole entry): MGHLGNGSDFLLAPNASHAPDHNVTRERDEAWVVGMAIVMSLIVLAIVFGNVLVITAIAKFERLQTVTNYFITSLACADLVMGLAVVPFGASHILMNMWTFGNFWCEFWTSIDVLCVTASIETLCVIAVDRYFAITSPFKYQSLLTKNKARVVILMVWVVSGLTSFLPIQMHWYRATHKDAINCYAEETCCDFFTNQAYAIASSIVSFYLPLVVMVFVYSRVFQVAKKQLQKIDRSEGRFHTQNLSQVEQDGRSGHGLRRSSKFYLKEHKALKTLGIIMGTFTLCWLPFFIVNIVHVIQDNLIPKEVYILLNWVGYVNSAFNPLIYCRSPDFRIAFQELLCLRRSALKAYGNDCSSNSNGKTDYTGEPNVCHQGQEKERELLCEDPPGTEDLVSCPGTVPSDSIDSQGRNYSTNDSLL

| SMILES | EC50 [1] [nM] | EC50 [2] [nM] | Intrinsic activity [5] | pKB [6] | pKB [10] | Potency ratio [3] | Potency ratio [4] | pKB [7] | Ki [8] [nM] | Ki [9] [nM] |
| --- | --- | --- | --- | --- | --- | --- | --- | --- | --- | --- |
| COc1cc(CC2NCCc3c2cc(O)c(O)c3I)cc(OC)c1OC (configuration not stated) | 2240 | > 31600 | 0.39 | 4.31 |  | 0.002 | 0.07 |  |  |  |
| COc1cc(C[C@H]2NCCc3cc(O)c(O)c(F)c32)cc(OC)c1OC |  |  |  |  |  |  |  | 5.63 |  |  |
| COc1cc(C[C@@H]2NCCc3cc(O)c(O)cc32)cc(OC)c1OC [TRETOQUINOL] | 26.3 | 174 |  |  |  |  |  | 5.46 | 49 | 87.1 |
| COc1cc(CC2NCCc3c2cc(O)c(O)c3C(F)(F)F)cc(OC)c1OC (configuration not stated) |  |  |  | 3.7 | 5.32 | 0.000525 | 0.00372 |  |  |  |

The next lines start with results.

| EC50 [1] [nM] | EC50 [2] [nM] | Intrinsic activity [5] | pKB [6] | pKB [10] | SMILES | Potency ratio [3] | Potency ratio [4] | pKB [7] | Ki [8] [nM] | Ki [9] [nM] |
| --- | --- | --- | --- | --- | --- | --- | --- | --- | --- | --- |
| 1170 | 2950 | 0.81 | 4.84 |  | COc1cc(CC2NCCc3cc(O)c(O)c(I)c32)cc(OC)c1OC (configuration not stated) | 0.09 | 0.24 |  |  |  |
| 240 | 501 |  | 3.98 |  | COc1cc(CC2NCCc3c(F)c(O)c(O)c(F)c32)cc(OC)c1OC (configuration not stated) | 0.00277 | 0.00708 |  |  |  |
